Measured values published in patent US20190119196A1, “COMPOUNDS FOR THE TREATMENT OF […]” (priority 2016, published 2019).
Where a name gives a salt, the structure may show the parent alone. Read-outs that look alike come from different tables or passages of the source.

Experiments:
[1] = target: T1, human β2-adrenoceptor (Homo sapiens, UniProt P07550); assay: 3H-CGP 12177 whole cell β2 binding
T1 construct: expressed in transfected cells
Experimental: ^3H-CGP 12177 Whole Cell β2 Binding
Chinese Hamster Ovary (CHO) cells stably expressing the human β2-adrenoceptor were grown in Dulbecco's modified Eagle's medium nutrient mix F12 (DMEM/F12) containing 10% fetal calf serum and 2 mM L-glutamine in a 37° C. humidified 5% CO2:95% air atmosphere. The cells were seeded (100 000 cells/mL) into white-sided, clear-bottomed 96-well isoplates and allowed to grow to confluence for the following day's experiment. Next day, the media was removed from each well of the isoplate. Aliquots of the test compounds (10^−2 M in DMSO) were diluted in DMEM/F12 containing 2 mM L-glutamine (serum-free media) to final concentration ranges of 10^−4 M to 10^−10 M and added to each well. The radioligand ^3H-CGP 12177 was diluted in the same medium (˜1 nM final well concentration) and added to each well. Propranolol and CGP 12177 (10 μM) were used to measure non-specific binding. The cells were incubated for 2 hours at 37° C. After incubation, the cells were washed twice by the addition and removal of 200 μL ice-cold phosphate-buffered saline (PBS). Cells were then lysed with Optiphase Supermix cocktail (100 μL/well) and a clear sealant top was applied to the plate. The plate was left overnight in the dark at room temperature, centrifuged (1000 rpm, 1 min) and measured in a MicroBeta2 Microplate Counter (Perkin Elmer) (10 minutes pre-incubation, 2 min counts/well).
All data points on each binding curve were measured in duplicates. Each 96-well plate also contained four determinations of total and non-specific binding. Non-specific binding was determined in the presence of CGP 12177 and propranolol (10 μM). […] All data points are measured in counts per minute (CPM) and converted into disintegrations per minute (DPM) by dividing the count rate (CPM) with the counting efficiency of the instruments detector (57%). The numerical values were obtained by using the GraphPad Prism 7 programme and are given as -log K (pKi) in the table.

[2] = system: L6-myotubes; assay: Measurement of intracellular cAMP levels (alpha screen cAMP kit); assay type: cell-based; details: agonist final concentration 1×10^−5, 15 min; differentiated cells; 1 mM IBMX
Experimental: (§1) L6-myoblasts were grown in Dulbecco's Modified Eagle's Medium (DMEM) containing 4,5 g/I glucose supplemented with 10% fetal bovine serum, 2 mM L-Glutamine, 50 U/ml penicillin, 50 μg/ml streptomycin and 10 mM HEPES. Cells were plated at 1×10^5 cells per ml in 24-well plates. After reaching 90% confluence the cells were grown in medium containing 2% FBS for 7 days where upon cells differentited into myotubes.
Differentiated cells were serum-starved over night and stimulated with agonist, final concentration 1×10−^5, for 15 min in stimulation buffer (HBSS supplemented with 1% BSA, 5 mM HEPES and 1 mM IBMX, pH 7,4) The medium was then aspirated and to end the reaction 100 μL of 95% EtOH was added to each well of a 24-well plate and cells were kept in −20° C. over night. The EtOH was let to evaporate and 500 μL of lysis buffer (1% BSA, 5 mM HEPES and 0,3% Tween-20, pH 7.4) was added to each well before put in −80° C. for 30 min and then kept in −20° C. Intracellular cAMP levels were detected using an alpha screen cAMP kit (6760635D from Perkin Elmer). The numerical values in the table are given as % increase over the basal level.

[3] = system: L6-myotubes; assay: Glucose uptake in differentiated L6-myotubes (3H-2-deoxy-glucose); assay type: cell-based; details: read-out: Biological example 1: glucose uptake, % increase over the basal level
Experimental: as §1
Differentiated L6-myotubes were serum-starved over night in medium containing 0.5% fatty-acid free BSA and stimulated with agonist, […], glucose free medium or PBS and another portion of agonist was added to glucose free medium. […] Cell lysate was mixed with scintillation buffer (Emulsifier Safe, Perkin Elmer and radioactivity detected in a β-counter (Tri-Carb 2800TR, Perkin Elmer). The numerical values in the table are given as % increase over the basal level.

[4] = CHO cells stably expressing the human β2-adrenoceptor, ~1 nM 3H-CGP 12177, 2 hours at 37° C., read-out: Biological example 3: -log K (pKi), 3H-CGP 12177 whole cell β2 binding (converted)
[5] = agonist final concentration 1×10^−5, differentiated L6-myotubes, 50 nM 3H-2-deoxy-glucose

T1 sequence (P07550 whole entry): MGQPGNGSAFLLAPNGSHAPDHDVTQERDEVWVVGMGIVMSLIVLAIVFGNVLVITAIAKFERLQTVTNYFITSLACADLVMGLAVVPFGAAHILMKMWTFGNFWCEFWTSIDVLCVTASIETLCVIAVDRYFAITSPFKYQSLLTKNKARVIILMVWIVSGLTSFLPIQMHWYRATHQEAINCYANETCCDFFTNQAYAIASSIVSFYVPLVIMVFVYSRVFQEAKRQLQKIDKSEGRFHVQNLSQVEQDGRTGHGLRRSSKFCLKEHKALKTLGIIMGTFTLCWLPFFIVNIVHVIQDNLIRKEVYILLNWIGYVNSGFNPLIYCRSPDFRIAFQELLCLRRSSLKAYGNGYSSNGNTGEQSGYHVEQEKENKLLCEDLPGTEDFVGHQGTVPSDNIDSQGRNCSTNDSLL

SMILES | Ki [1, 4] [µM] | Biological example 2: intracellular cAMP levels, % increase over the basal level [2] [%] | activation [3, 5] [%] | Ki [1] [µM] | activation [3] [%]
CCCC(C)NC(C)C(O)c1ccc(O)cc1 (mixture of isomers) [Example 13, 4-(1-Hydroxy-2-(pentan-2-ylamino)propyl)phenol acetate] | 15.8 | −1 | 42 | – | –
CCCC(C)NCC(O)c1cccc(O)c1 (mixture of isomers) [Example 15, 3-(1-Hydroxy-2-(pentan-2-ylamino)ethyl)phenol] | 0.794 | 20 | 31 | – | –
CCCC(C)NCC(O)c1ccc(O)c(Cl)c1 (mixture of isomers) [Example 19, 2-Chloro-4-(1-hydroxy-2-(pentan-2-ylamino)ethyl)phenol] | 0.501 | −52 | 30 | – | –
CCCC(C)NCC(O)c1cc(Cl)c(O)c(Cl)c1 (mixture of isomers) [Example 27, 2,6-Dichloro-4-(1-hydroxy-2-(pentan-2-ylamino)ethyl)phenol] | 1.26 | 86 | 6 | – | –
CCCC(C)NCC(O)c1cc(Cl)c(N)c(Cl)c1 (mixture of isomers) [Example 28, 1-(4-Amino-3,5-dichlorophenyl)-2-(pentan-2-ylamino)ethan-1-ol trifluoroacetate] | – | 2 | – | 0.398 | 39
CCCC(C)NCC(O)c1cc(Cl)c(N)c(C(F)(F)F)c1 (mixture of isomers) [Example 31, 1-(4-amino-3-chloro-5-(trifluoromethyl)phenyl)-2-(pentan-2-ylamino)ethan-1-ol] | – | 439 | 36 | 0.0316 | –
CCCC(C)NCC(O)c1ccc(Cl)c(O)c1 (mixture of isomers) [Example 33, 2-Chloro-5-(1-hydroxy-2-(pentan-2-ylamino)ethyl)phenol] | 1 | 1191 | 55 | – | –
CCCCNCC(O)c1ccc(O)cc1 (stereo not shown) [Example 1, 4-(2-(Butylamino)-1-hydroxyethyl)phenol] | 25.1 | 1 | 50 | – | –
CCCCNCC(O)c1cccc(Cl)c1 (stereo not shown) [Example 2, 2-(Butylamino)-1-(3-chlorophenyl)ethan-1-ol] | 6.31 | 3 | 27 | – | –
Oc1ccc(C(O)CNCC2CC2)cc1 (stereo not shown) [Example 3, 4-(2-((Cyclopropylmethyl)amino)-1-hydroxyethyl)phenol] | 25.1 | 18 | 86 | – | –
CC(C)(C)NCC(O)c1ccc(O)cc1 (stereo not shown) [Example 4, 4-(2-(tert-Butylamino)-1-hydroxyethyl)phenol] | 1 | 40 | – | – | 62
CCC(C)NCC(O)c1ccc(O)cc1 (stereo not shown) [Example 5, 4-(2-(sec-Butylamino)-1-hydroxyethyl)phenol] | 5.01 | 18 | 39 | – | –
Oc1ccc(C(O)CNCC2CCCCC2)cc1 (stereo not shown) [Example 6, 4-(2-((Cyclohexylmethyl)amino)-1-hydroxyethyl)phenol] | 10 | 3 | 23 | – | –
Oc1ccc(C(O)CNC2CCCC2)cc1 (stereo not shown) [Example 7, 4-(2-(cyclopentylamino)-1-hydroxyethyl)phenol acetate] | 5.01 | 1 | 23 | – | –
CCCC(C)NCC(O)c1ccc(O)cc1 (stereo not shown) [Example 8, 4-(1-Hydroxy-2-(pentan-2-ylamino)ethyl)phenol acetate] | 20 | 15 | – | – | 12
Oc1ccc(C(O)CNC23CC4CC(CC(C4)C2)C3)cc1 (stereo not shown) [Example 9, 4-(2-(adamantan-1-ylamino)-1-hydroxyethyl)phenol hemisulfate] | 50.1 | 4 | 18 | – | –
OC(CNCC1CCCCC1)c1ccccc1 (stereo not shown) [Example 10, 2-((cyclohexylmethyl)amino)-1-phenylethan-1-ol] | 25.1 | 5 | 39 | – | –
CCCCNC[C@H](O)c1ccc(O)cc1 [Example 11, (R)-4-(2-(Butylamino)-1-hydroxyethyl)phenol hemisulfate] | 39.8 | 10 | 50 | – | –
CCCCNC(C)C(O)c1ccc(O)cc1 (stereo not shown) [Example 12, 4-(2-(Butylamino)-1-hydroxypropyl)phenol acetate] | 7.94 | 190 | 40 | – | –
CCCCNCC(O)c1cccc(O)c1 (stereo not shown) [Example 14, 3-(2-(Butylamino)-1-hydroxyethyl)phenol] | 15.8 | 20 | 17 | – | –
Oc1ccc(C(O)CNCCC2CCCCC2)cc1 (stereo not shown) [Example 16, 4-(2-((2-Cyclohexylethyl)amino)-1-hydroxyethyl)phenol acetate] | 5.01 | −56 | 23 | – | –
CCCCCCNCC(O)c1ccc(O)cc1 (stereo not shown) [Example 17, 4-(2-(Hexylamino)-1-hydroxyethyl)phenol acetate] | 6.31 | 70 | 26 | – | –
CCCCCCCCNCC(O)c1ccc(O)cc1 (stereo not shown) [Example 18, 4-(1-Hydroxy-2-(octylamino)ethyl)phenol acetate] | 6.31 | −23 | 26 | – | –
CCCCNCC(O)c1ccc(O)c(Cl)c1 (stereo not shown) [Example 20, 4-(2-(Butylamino)-1-hydroxyethyl)-2-chlorophenol] | 3.16 | −19 | 12 | – | –
Oc1ccc(C(O)CNCCCC2CCCCC2)cc1 (stereo not shown) [Example 21, 4-(2-((3-Cyclohexylpropyl)amino)-1-hydroxyethyl)phenol] | 2 | −16 | 37 | – | –
Oc1ccc(C(O)CNCCC2CC2)cc1 (stereo not shown) [Example 22, 4-(2-((2-Cyclopropylethyl)amino)-1-hydroxyethyl)phenol] | 12.6 | 20 | 30 | – | –
Oc1ccc(C(O)CNCCCC2CC2)cc1 (stereo not shown) [Example 23, 4-(2-((3-Cyclopropylpropyl)amino)-1-hydroxyethyl)phenol acetate] | 7.94 | – | 28 | – | –
Oc1ccc(C(O)CNCCCC(F)(F)F)cc1 (stereo not shown) [Example 24, 4-(1-Hydroxy-2-((4,4,4-trifluorobutyl)amino)ethyl)phenol acetate] | 10 | – | 22 | – | –
CCCCNCC(O)c1cc(O)cc(O)c1 (stereo not shown) [Example 25, 5-(2-(Butylamino)-1-hydroxyethyl)benzene-1,3-diol hemisulphate] | 39.8 | 115 | 32 | – | –
